Experiments:
pancreatic cancer cells = assay: metabolomic analysis using mass spectroscopy in pancreatic cancer cells; type: cell-based, human
Experimental: To further characterize the mechanisms of action of novel LXR modulators 1E5 and 3A4, metabolomic and transcriptomic analysis of pancreatic cancer cells were conducted in response to treatment. […] PDAC tumors have altered metabolism to support its growth and survival. Previous studies have reported that Kras upregulates the non-canonical use of glutamine to maintain NADPH/NADP+ ratio which in turn regulates redox homeostasis. This unconventional use of glutamine by PDAC cells fuel cancer cell proliferation and survival. Glutamine metabolism in PDAC has two unique functions: 1. Glutamine-derived Glutamate is used for glutathione (GSH) biosynthesis. 2. Glutamine facilitates generation of reducing equivalents in the form of NADPH. In PDAC mitochondria, glutamine is converted to glutamate by glutaminase enzyme (GLS1). This glutamine derived glutamate is conventionally converted to alpha-ketoglutarate by glutamate dehydrogenase (GLUD1) to fuel citric acid cycle. However, in PDAC cells glutamate is converted to aspartate in cytosol which is converted to malic acid and NADPH is produced during this process. This process is essential to maintain redox homeostasis in the tumor. However, this non-canonical use of glutamine is dispensable in non-malignant cells. Therefore, targeting GLS1 to decrease the bioavailability of glutamate to act as source of nitrogen and carbon for the synthesis of amino acids and nucleic acids is a viable strategy to target PDAC tumors. […] The effect of 1E5 is similar to BPTES, a potent GLS1 inhibitor.
TCA cycle intermediates act as anaplerotic substrate for gluconeogenesis and lipogenesis. […] GOT2 converts glutamine-derived glutamate to alpha-KG. During this process oxaloacetate is converted to aspartate which is required to maintain redox homeostasis. Studies have shown that inhibition of GOT2 in PDAC promotes senescence.
To determine if 1E5 and 3A4 can induce apoptosis, PDAC cells were treated with the LXR ligands and subjected to pro-apoptotic caspase cleavage analysis. […] Metabolomic profiling following treatments with the two ligands indicated the activation of two distinct cell death mechanisms. Ferroptosis is a non-apoptotic form of cell death which is characterized by accumulation of lipid peroxides by loss of glutathione peroxidase 4 (GPX4) activity. It can also be induced by accumulation of intracellular iron and depletion of reduced glutathione (GSH). GPX4 is an anti-oxidant enzyme involved in conversion of PUFA peroxides to PUFA alcohols. GSH is a critical cofactor of GPX4 and acts as a reducing agent to reduce the lipid peroxides. Therefore, direct inhibition of GPX4 activity or reduction in GSH levels trigger ferroptosis. The second mechanism of inducing ferroptosis is accumulation of polyunsaturated fatty acids (PUFAs) in cells. Studies have shown that PUFAs are the most susceptible lipids to peroxidation.
Expression profiles of ferroptosis genes in RNAseq data following 1E5 treatment were also consistent with its pro-ferroptotic actions. […] Polyamines are amino-acid derived polycationic alkylamines that are required for the growth of cells. SAT1 catalyzes the acetylation of spermidine and spermine to form N-acetylspermidine and N-acetylspermine respectively. […] SAT1 induces ferroptosis by upregulating the peroxidation of PUFA arachidonic acid. Ceramides are sphingolipids consisting of sphingosine and fatty acid acyl chain. Cellular stress leads to upregulation of ceramide synthesis which mediate caspase-dependent apoptosis. Accumulation of ceramides/hexosylceramides in the mitochondria leads to the formation of channel like structures in the mitochondrial outer membrane which increases the permeability of pro-apoptotic proteins such as cytochrome c. ER stress is also known to activate de-novo synthesis of ceramides and induce apoptosis by increasing the flow of Ca ions and upregulating the unfolded protein stress response. […]

PDAC cells = assay: enzymatic assay of glutamate levels; type: cell-based, human
Experimental: To further characterize the mechanisms of action of novel LXR modulators 1E5 and 3A4, metabolomic and transcriptomic analysis of pancreatic cancer cells were conducted in response to treatment. […] PDAC tumors have altered metabolism to support its growth and survival. Previous studies have reported that Kras upregulates the non-canonical use of glutamine to maintain NADPH/NADP+ ratio which in turn regulates redox homeostasis. This unconventional use of glutamine by PDAC cells fuel cancer cell proliferation and survival. Glutamine metabolism in PDAC has two unique functions: 1. Glutamine-derived Glutamate is used for glutathione (GSH) biosynthesis. 2. Glutamine facilitates generation of reducing equivalents in the form of NADPH. In PDAC mitochondria, glutamine is converted to glutamate by glutaminase enzyme (GLS1). This glutamine derived glutamate is conventionally converted to alpha-ketoglutarate by glutamate dehydrogenase (GLUD1) to fuel citric acid cycle. However, in PDAC cells glutamate is converted to aspartate in cytosol which is converted to malic acid and NADPH is produced during this process. This process is essential to maintain redox homeostasis in the tumor. However, this non-canonical use of glutamine is dispensable in non-malignant cells. […]

MDA-MB-231 = assay: expression of LXR target genes in breast cancer cells; type: cell-based; details: MDA-MB-231, triple-negative
From the text: (§1) The inhibitory effects of LXR ligands in breast cancer cells have been shown previously. […] The observed decreases in LXR protein levels were not affected by proteasome inhibitor MG132.

MCF-7 = assay: as above; type: cell-based; details: MCF-7, ER-positive
From the text: as §1

SMILES: O=c1cc(-c2ccccc2)nc(Nc2cccc(C(F)(F)F)c2)[nH]1 [Compound 1E5, 6-phenyl-2-{[3-(trifluoromethyl)phenyl]amino}-3,4-dihydropyrimidin-4-one]
- glutamate levels (mass spectroscopy) (pancreatic cancer cells): decreases in glutamate levels
- glutamine biosynthesis (pancreatic cancer cells): inhibited glutamine biosynthesis
- level of glutathione (GSH) (pancreatic cancer cells): decreased level of GSH
- levels of TCA cycle intermediates (alpha-KG, citrate and fumarate) (pancreatic cancer cells): downregulated
- levels of asparagine and aspartate (pancreatic cancer cells): decreased the levels
- levels of polyamine metabolites (pancreatic cancer cells; PANC-1): depletion of spermidine and spermine and accumulation of putrescine, N-acetylspermidine and N-acetylspermine
- levels of polyunsaturated fatty acids (PUFAs) (pancreatic cancer cells; PANC-1): increased levels of PUFAs
- glutamate levels, combination treatment with BPTES (PDAC cells; 1E5 plus glutaminase inhibitor BPTES): synergistic effects on reducing the glutamate levels
- intracellular levels of glutamate (PDAC cells; treated for 48 hours): significantly reduced
- expression of LXR target genes (MDA-MB-231): generally down-regulated
- expression of LXR target genes (MCF-7): generally down-regulated
